Assay results: paper PMC9537541, “Synthesis and anticancer activity of new benzensulfonamides incorporating s-triazines as cyclic linkers for inhibition of carbonic anhydrase IX” (Scientific Reports, 2022)

Experiments:
[1] = tested on: Breast cancer (MDA-MB-468); experiment: NCI single dose SRB screen, MDA-MB-468; type: cell-based
Summary of the method: (§1)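 The NCI 60-cell-line panel was screened at a single 10 µM dose with 48 h drug exposure. Cell growth and viability were measured by sulforhodamine B colorimetric assay, per the NCI Drug Evaluation Branch protocol.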

[2] = target: T1, hCA I (Homo sapiens, UniProt P00915); experiment: stopped-flow CO2 hydrase assay, hCA I; type: biochemical; conditions: stopped flow technique, mean from 3 different assays
T1 construct: made in house

[3] = tested on: Leukemia (CCRF-CEM); experiment: NCI single dose SRB screen, CCRF-CEM; type: cell-based; conditions: normoxic condition (5% CO2, 95% air at 37 °C), NCI protocol
Procedure: (§2) Target compounds in series (A) and (B), were submitted to the National Cancer Institute (NCI) Developmental Therapeutic Program (www.dtp.nci.nih.gov), where they have been assessed, in vitro for their anticancer activity. Two series (A) and (B), were screened in a single dose (10 µM) versus full panel composed of 60 cancer cell lines, in accordance with protocol of drug evaluation branch, NCI, Bethesda. Sulforhodamine B (SRB) colorimetric assay was used to determine cell growth and viability,[40].
(§3) Protocol of Drug Evaluation Branch, NCI, Bethesda, was adopted in the antitumor assay. Assessment of cell growth and viability was carried out utilizing SRB assay and 48 h drug exposure protocol as previously reported,[40].

[4] = tested on: non-small cell lung cancer (HOP-92); experiment: NCI single dose SRB screen, HOP-92; type: cell-based; conditions: 10 µM single dose
Procedure: as §2, §3

[5] = tested on: Leukemia (SR); experiment: NCI single dose SRB screen, SR; type: cell-based; conditions: 48 h, 10^−5 M single dose, read-out: GI% Leukemia (SR)
Summary of the method: as §1

[6] = tested on: CNS cancer (SNB-75); experiment: NCI single dose SRB screen, SNB-75; type: cell-based; conditions: Homo sapiens, SNB-75, 48 h, 10^−5 M single dose, read-out: GI% CNS cancer (SNB-75)
Summary of the method: as §1

[7] = tested on: leukemia (CCRF-CM); experiment: anti-proliferative activity under hypoxic condition (MTT), CCRF-CM; type: cell-based
Procedure: (§4) All cells were incubated in hypoxic atmosphere (1% O2, 5% CO2, and 94%N2) and maintained at 37 °C. All procedures to determine compounds cytotoxicity were accomplished using MTT assay as reported,[59],[60].

[8] = target: T2, hCA XII (Homo sapiens, UniProt O43570); experiment: stopped-flow CO2 hydrase assay, hCA XII; type: biochemical; conditions: stopped flow technique, mean from 3 different assays
T2 construct: made in house

[9] = tested on: Breast cancer (MDA-MB-468); experiment: anti-proliferative activity under hypoxic condition (MTT), MDA-MB-468; type: cell-based
Procedure: as §4

[10] = target: T3, hCA II (Homo sapiens, UniProt P00918); experiment: stopped-flow CO2 hydrase assay, hCA II; type: biochemical; conditions: stopped flow technique, mean from 3 different assays
T3 construct: made in house

[11] = tested on: Renal cancer (UO-31); experiment: NCI single dose SRB screen, UO-31; type: cell-based; conditions: Homo sapiens, UO-31, 48 h, 10^−5 M single dose, read-out: GI% Renal cancer (UO-31)
Summary of the method: as §1

[12] = hypoxic condition (1% O2, 5% CO2, and 94%N2 at 37 °C)

T2 sequence (O43570 25-354): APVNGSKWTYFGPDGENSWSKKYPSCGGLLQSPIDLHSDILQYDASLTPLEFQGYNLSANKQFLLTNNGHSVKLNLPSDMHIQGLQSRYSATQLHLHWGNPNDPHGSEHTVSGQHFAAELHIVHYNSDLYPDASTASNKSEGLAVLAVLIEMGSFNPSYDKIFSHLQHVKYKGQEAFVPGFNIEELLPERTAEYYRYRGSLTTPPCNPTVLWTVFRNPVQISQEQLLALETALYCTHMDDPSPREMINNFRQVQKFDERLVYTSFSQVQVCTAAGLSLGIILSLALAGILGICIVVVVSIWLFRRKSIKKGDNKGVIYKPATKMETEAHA
T1 sequence (P00915 whole entry): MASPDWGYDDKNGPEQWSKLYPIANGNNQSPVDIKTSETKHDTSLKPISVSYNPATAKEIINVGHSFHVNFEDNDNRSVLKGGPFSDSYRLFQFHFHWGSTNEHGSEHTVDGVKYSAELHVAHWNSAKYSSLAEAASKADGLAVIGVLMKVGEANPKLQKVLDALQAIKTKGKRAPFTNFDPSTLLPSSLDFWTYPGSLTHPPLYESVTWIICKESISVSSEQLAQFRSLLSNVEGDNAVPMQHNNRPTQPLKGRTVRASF

Ki [2]: 480 nM
IC50 ([7]; hypoxic conditions (1%O2, 5% CO2 and 94% N2), mean ± S.D. of three experiments): 9830 ± 520 nM
Ki [8]: 182 nM
IC50 ([9]; Homo sapiens, MDA-MB-468, hypoxic conditions (1%O2, 5% CO2 and 94% N2), mean ± S.D. of three experiments): 1480 ± 80 nM
Ki [10]: 253 nM
Structure (SMILES): N#C/C(=C\c1cccc(F)c1)c1nc(N)nc(Nc2ccc(S(N)(=O)=O)cc2)n1 [Compound 12i, 4-({4-Amino-6-[(1E)-1-cyano-2-(3-fluorophenyl)eth-1-en-1-yl]-1,3,5-triazin-2-yl}amino)benzene-1-sulfonamide]
inhibition at 10 µM ([1]; Homo sapiens, MDA-MB-468, 48 h, 10^−5 M single dose, 48 h, SRB, read-out: GI% Breast cancer (MDA-MB-468)): 17%
GI% Normoxia MDA-MB-468 ([1]; normoxic condition (5% CO2, 95% air at 37 °C), NCI protocol): 16.58%
GI% Normoxia CCRF-CM [3]: 0.76%
GI% non-small cell lung cancer (HOP-92) [4]: 16%
inhibition at 10 µM [5]: ≤ 10%
inhibition at 10 µM [6]: ≤ 10%
GI% Hypoxia CCRF-CM [7, 12]: 50.14%
GI% Hypoxia MDA-MB-468 [9, 12]: 64.75%
inhibition at 10 µM [11]: 20%
